One block for each molecule: values may come before it.
How the values were obtained:
[1] = molecular target: Serine/threonine-protein kinase 26 (Homo sapiens) (UniProt Q9P289); assay: Selectivity interaction (KinomeScan (DiscoverX)) EUB0000178b STK26; details: at 1 µM
Aurora kinase A = Aurora kinase A (Homo sapiens, UniProt O14965)
[2] = molecular target: T1, Aurora kinase C (Homo sapiens) (UniProt Q9UQB9); details: at 1 µM
T1 sequence (whole entry): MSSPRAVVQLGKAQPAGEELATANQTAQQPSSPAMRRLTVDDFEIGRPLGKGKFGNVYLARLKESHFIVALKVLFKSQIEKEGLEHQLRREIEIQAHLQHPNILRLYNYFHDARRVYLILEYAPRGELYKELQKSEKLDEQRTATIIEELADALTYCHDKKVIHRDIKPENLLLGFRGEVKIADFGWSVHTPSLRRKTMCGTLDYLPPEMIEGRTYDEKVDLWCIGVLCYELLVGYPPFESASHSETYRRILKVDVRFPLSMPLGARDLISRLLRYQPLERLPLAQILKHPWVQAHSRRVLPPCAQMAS

[3] = molecular target: Serine/threonine-protein kinase 10 (Homo sapiens) (UniProt O94804); details: at 1 µM
[4] = molecular target: Epithelial discoidin domain-containing receptor 1 (Homo sapiens, UniProt Q08345); details: at 1 µM
[5] = molecular target: Macrophage-stimulating protein receptor (Homo sapiens) (UniProt Q04912); details: at 1 µM
Sequence of Macrophage-stimulating protein receptor (Homo sapiens) (Q04912 whole entry): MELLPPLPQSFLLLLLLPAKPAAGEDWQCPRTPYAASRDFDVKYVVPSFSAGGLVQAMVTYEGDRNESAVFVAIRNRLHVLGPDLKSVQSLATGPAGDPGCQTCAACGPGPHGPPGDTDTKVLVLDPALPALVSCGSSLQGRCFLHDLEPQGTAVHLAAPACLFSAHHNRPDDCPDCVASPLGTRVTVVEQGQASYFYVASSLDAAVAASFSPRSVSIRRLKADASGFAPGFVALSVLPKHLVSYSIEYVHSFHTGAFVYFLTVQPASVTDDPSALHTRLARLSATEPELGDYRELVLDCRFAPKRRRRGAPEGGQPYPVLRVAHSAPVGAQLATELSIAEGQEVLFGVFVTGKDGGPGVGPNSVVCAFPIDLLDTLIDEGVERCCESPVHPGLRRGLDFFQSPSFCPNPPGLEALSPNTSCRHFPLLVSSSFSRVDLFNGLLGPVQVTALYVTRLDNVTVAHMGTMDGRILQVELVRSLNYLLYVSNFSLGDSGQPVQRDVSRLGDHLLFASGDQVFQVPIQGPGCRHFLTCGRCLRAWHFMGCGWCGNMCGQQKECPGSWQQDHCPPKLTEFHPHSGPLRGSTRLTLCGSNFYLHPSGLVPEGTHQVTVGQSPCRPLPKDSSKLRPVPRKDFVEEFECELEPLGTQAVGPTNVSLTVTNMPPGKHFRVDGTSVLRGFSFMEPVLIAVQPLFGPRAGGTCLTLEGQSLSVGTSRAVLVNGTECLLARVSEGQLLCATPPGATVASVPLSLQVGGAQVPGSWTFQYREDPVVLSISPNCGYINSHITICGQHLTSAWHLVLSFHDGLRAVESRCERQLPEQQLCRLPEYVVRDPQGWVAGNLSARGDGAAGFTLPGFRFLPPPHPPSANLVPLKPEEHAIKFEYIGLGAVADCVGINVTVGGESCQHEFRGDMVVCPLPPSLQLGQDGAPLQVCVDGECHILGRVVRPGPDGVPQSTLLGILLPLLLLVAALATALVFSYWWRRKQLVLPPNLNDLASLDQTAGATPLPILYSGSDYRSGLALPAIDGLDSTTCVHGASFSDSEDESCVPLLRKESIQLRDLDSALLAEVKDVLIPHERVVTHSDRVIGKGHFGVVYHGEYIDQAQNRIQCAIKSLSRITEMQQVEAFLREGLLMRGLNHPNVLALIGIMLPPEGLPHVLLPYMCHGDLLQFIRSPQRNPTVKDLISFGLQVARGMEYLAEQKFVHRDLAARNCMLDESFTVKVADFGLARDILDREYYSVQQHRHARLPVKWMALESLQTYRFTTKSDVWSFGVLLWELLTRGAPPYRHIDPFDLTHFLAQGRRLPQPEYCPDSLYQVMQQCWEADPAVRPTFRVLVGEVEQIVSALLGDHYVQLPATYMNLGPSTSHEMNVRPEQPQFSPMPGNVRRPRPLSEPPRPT

[6] = molecular target: Death-associated protein kinase 1 (Homo sapiens) (UniProt P53355); assay: Selectivity interaction (KinomeScan (DiscoverX)) EUB0000698a DAPK1; details: at 10 µM
[7] = molecular target: Dual specificity tyrosine-phosphorylation-regulated kinase 1A (Homo sapiens, UniProt Q13627); assay: Selectivity interaction (Kinase panel (University of Dundee)) EUB0000169b DYRK1A; details: at 10 µM
[8] = molecular target: Glycogen synthase kinase-3 beta (Homo sapiens, UniProt P49841); assay: Selectivity interaction (Kinase panel (University of Dundee)) EUB0000169b GSK3B; details: at 10 µM
[9] = molecular target: Serine/threonine-protein phosphatase 2A activator (Homo sapiens) (UniProt Q15257); assay: Selectivity interaction (Kinase panel (University of Dundee)) EUB0000169b PTPA; details: at 10 µM
[10] = molecular target: Protein kinase C alpha type (Homo sapiens) (UniProt P17252); assay: Selectivity interaction (Kinase panel (University of Dundee)) EUB0000169b PRKCA; details: at 10 µM
[11] = molecular target: Tyrosine-protein kinase JAK2 (Homo sapiens, UniProt O60674); assay: Selectivity interaction (KinomeScan (DiscoverX)) EUB0000138c JAK2; details: at 100 nM
[12] = molecular target: Serine/threonine-protein kinase RIO1 (Homo sapiens) (UniProt Q9BRS2); assay: Selectivity interaction (KinomeScan (DiscoverX)) EUB0000702a RIOK1; details: at 1 µM
[13] = molecular target: Serine/threonine-protein kinase PLK1 (Homo sapiens, UniProt P53350); assay: Selectivity interaction (KinomeScan (DiscoverX)) EUB0000702a PLK1; details: at 1 µM
[14] = molecular target: T2, Gamma-aminobutyric acid receptor subunit alpha-1 (Homo sapiens, UniProt P14867); assay: Selectivity interaction (GPCR panel (PDSP screen)) EUB0000702a GABRA1
T2 sequence (P14867 whole entry): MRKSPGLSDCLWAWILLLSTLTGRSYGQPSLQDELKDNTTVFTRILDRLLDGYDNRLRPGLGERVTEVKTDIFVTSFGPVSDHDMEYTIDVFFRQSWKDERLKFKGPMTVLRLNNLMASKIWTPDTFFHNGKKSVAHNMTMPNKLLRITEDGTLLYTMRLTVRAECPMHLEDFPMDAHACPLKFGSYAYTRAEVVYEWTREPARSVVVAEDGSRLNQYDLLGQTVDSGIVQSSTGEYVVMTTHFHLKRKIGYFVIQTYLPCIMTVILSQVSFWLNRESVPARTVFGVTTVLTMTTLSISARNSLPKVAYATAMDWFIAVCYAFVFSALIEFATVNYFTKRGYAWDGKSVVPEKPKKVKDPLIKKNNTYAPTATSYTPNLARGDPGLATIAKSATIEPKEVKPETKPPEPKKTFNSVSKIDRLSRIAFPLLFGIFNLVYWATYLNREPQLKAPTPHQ

Focal adhesion kinase 1 = Focal adhesion kinase 1 (Homo sapiens, UniProt Q05397); assay: Selectivity interaction (KinomeScan (DiscoverX)) EUB0000702a PTK2; details: at 1 µM
[15] = system: Hepatocyte growth factor receptor (Homo sapiens), P08581 [M1250T]; assay: (§1) Selectivity interaction (KinomeScan (DiscoverX)) EUB0000702a MET; details: at 1 µM
Sequence of Hepatocyte growth factor receptor (Homo sapiens), P08581 [M1250T] (P08581 whole entry M1250T): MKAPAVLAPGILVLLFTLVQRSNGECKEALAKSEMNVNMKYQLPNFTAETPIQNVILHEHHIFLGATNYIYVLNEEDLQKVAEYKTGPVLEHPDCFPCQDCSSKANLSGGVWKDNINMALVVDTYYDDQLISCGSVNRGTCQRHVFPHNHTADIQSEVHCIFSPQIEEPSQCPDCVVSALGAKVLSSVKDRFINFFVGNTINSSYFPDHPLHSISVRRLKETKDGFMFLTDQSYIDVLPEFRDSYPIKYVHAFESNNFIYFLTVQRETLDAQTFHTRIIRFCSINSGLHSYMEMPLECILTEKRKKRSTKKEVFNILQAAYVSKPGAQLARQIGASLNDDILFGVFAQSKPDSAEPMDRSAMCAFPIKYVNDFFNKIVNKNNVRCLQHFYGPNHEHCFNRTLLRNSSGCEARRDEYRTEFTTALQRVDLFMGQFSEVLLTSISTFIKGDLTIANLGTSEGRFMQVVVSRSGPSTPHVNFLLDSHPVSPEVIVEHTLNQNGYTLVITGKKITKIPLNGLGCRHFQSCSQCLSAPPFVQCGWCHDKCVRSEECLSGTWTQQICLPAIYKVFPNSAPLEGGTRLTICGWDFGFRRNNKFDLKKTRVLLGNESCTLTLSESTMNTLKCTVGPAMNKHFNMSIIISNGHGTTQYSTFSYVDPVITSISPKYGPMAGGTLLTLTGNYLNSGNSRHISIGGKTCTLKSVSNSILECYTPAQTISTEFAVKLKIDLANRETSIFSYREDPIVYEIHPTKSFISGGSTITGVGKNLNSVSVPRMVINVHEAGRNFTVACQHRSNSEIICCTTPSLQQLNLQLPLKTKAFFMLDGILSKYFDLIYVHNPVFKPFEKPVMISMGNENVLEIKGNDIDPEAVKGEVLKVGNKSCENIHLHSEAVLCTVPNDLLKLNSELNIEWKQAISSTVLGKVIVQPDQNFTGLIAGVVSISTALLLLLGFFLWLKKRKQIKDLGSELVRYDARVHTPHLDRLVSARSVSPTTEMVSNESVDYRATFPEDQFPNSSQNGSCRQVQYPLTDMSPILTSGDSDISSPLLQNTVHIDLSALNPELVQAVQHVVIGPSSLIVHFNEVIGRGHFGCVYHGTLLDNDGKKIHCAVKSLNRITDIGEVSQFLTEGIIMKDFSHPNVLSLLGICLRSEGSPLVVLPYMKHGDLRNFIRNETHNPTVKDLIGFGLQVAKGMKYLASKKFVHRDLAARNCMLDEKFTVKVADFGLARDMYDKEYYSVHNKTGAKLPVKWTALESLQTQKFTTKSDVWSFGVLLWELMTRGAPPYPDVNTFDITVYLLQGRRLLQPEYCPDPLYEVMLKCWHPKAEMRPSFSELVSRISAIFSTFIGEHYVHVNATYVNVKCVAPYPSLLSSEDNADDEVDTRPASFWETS

[16] = system: Hepatocyte growth factor receptor (Homo sapiens), P08581 [Y1235D]; assay: as §1; details: at 1 µM
[17] = molecular target: T3, Dual specificity mitogen-activated protein kinase kinase 5 (Homo sapiens, UniProt Q13163); assay: Selectivity interaction (NanoBRET assay (HEK293T cells)) EUB0000305b MAP2K5
T3 sequence (Q13163 whole entry): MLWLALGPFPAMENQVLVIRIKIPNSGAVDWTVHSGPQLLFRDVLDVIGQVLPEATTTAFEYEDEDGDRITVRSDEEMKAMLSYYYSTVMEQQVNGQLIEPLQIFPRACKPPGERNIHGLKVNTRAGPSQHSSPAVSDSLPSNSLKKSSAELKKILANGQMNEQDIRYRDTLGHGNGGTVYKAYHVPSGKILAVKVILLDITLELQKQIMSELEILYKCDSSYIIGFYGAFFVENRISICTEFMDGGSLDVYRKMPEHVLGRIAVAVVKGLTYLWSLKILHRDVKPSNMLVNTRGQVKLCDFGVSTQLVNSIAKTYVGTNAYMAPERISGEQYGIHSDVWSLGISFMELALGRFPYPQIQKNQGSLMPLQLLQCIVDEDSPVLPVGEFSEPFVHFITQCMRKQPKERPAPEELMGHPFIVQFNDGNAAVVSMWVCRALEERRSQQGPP

[18] = system: Phosphatidylinositol 4,5-bisphosphate 3-kinase catalytic subunit alpha isoform (Homo sapiens), P42336 [Q546K]; assay: Selectivity interaction (KinomeScan (DiscoverX)) EUB0000305b PIK3CA; details: CellTiter-Glo assay (Promega, proliferation in ACHN cells): IC50 = […] nM, https://www.sgc-ffm.uni-frankfurt.de/#!specificprobeove, at 100 nM
Sequence of Phosphatidylinositol 4,5-bisphosphate 3-kinase catalytic subunit alpha isoform (Homo sapiens), P42336 [Q546K] (P42336 whole entry Q546K, canonical isoform): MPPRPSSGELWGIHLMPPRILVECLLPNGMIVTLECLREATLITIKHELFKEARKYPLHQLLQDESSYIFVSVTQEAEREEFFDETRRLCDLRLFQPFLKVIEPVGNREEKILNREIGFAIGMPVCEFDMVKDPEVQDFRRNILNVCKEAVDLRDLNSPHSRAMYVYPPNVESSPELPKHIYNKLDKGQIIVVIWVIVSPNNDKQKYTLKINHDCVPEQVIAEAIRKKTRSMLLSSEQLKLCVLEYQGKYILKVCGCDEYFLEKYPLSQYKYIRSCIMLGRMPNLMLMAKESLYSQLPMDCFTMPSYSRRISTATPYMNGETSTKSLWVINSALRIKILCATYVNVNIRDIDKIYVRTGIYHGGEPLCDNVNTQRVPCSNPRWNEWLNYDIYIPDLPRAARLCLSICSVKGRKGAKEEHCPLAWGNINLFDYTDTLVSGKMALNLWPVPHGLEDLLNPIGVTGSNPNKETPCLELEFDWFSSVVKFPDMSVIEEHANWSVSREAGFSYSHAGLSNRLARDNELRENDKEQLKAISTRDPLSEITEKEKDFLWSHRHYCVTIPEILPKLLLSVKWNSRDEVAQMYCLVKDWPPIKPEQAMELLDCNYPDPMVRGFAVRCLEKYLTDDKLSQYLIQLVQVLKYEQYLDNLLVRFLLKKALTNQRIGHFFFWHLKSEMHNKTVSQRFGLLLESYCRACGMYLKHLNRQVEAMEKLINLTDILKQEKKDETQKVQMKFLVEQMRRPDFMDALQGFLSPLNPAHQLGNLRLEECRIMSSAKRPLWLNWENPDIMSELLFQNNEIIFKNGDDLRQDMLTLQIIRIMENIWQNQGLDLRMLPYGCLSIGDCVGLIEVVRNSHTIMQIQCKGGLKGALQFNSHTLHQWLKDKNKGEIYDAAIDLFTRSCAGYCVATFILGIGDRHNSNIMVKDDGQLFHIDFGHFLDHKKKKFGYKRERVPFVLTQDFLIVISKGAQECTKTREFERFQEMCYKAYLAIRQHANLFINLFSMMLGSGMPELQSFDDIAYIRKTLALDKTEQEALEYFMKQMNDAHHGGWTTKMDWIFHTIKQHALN

Sequence of Aurora kinase A (O14965 whole entry): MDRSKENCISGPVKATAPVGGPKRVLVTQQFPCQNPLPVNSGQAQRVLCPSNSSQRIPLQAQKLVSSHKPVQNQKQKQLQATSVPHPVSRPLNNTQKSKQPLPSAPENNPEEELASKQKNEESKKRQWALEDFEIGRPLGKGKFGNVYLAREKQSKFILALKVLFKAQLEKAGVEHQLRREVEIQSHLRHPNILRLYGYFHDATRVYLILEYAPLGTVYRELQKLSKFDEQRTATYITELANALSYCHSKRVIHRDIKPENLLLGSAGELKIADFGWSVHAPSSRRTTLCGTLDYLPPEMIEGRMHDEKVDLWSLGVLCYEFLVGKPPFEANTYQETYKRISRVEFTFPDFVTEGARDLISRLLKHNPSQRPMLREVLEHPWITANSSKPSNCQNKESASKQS

SMILES: CN1C(=O)c2sccc2N(C)c2nc(Nc3ccc(S(N)(=O)=O)cc3)ncc21
- % of control [1]: 0.6%

SMILES: CCOc1cn(-c2ccc(F)cc2C)nc1C(=O)Nc1ccc(Oc2ccnc3cc(OC)c(OC)cc23)c(F)c1
- IC50 (Aurora kinase A): 36 nM
- % of control [2]: < 10%
- % of control [3]: < 10%
- % of control [4]: < 10%
- % of control [5]: < 10%

SMILES: COc1cc2ncn(-c3cc(OCc4ccccc4C(F)(F)F)c(C(N)=O)s3)c2cc1OC [GW843682X]
- % of control [6]: 8.6%

SMILES: CC[C@@H]1C(=O)N(C)c2cnc(Nc3ccc(C(=O)NC4CCN(C)CC4)cc3OC)nc2N1C1CCCC1
- % of control [7]: 72%
- % of control [8]: 69%
- % of control [9]: 56%
- % of control [10]: 103%

SMILES: CNC(=O)c1ccc(Nc2ncc(C(F)(F)F)c(NCc3nccnc3N(C)S(C)(=O)=O)n2)cc1 [DEFACTINIB]
- % of control [11]: 4.8%

The remaining lines, values ahead:

- % of control [12]: 9.7%
- % of control [13]: 7.6%
- Ki [14]: 1480 nM
- % of control (Focal adhesion kinase 1): 4.9%
- % of control [15]: 6.8%
- % of control [16]: 10%
SMILES: CN(c1ccnc(CNc2nc(Nc3ccc4c(c3)CC(=O)N4)ncc2C(F)(F)F)n1)S(C)(=O)=O [PF-00911705]

- IC50 [17]: > 20000 nM
- % of control [18]: 45%
SMILES: C[C@H](c1ccnc(Nc2nc3ccc(-c4cc(N(C)C)ncn4)cc3[nH]2)c1)N1CCN(C(=O)CC(F)(F)F)CC1 [BAY-985]

From ChEMBL document CHEMBL5212743, “Selectivity Literature for EUbOPEN Chemogenomics Library wave 3” (2023)
